Reference: patent US4578475A, “Novel D-homosteroids” (Hoffman-La Roche Inc., priority 1983, dated 1986)

Key:
[1] = tested on: pregnant female albino rats; assay: Interceptive activity in rats (pregnant rats, serum progesterone, living foetuses, resorptions, vacant implantation positions); format: in vivo, rat; conditions: for Serum progesterone 3 h later: orally or intramuscularly on 10th day of pregnancy; for Living foetuses, n (number of animals) / Living foetuses, x (mean of the observations) / Resorption, n (number of animals) / Resorption, x (mean of the observations) / Vacant implantation positions, n (number of animals) / Vacant implantation positions, x (mean of the observations): orally or intramuscularly on 10th day, killed on 15th day
From the text: Female albino rats were kept under controlled conditions, the synchronicity of the cycle being monitored by daily vaginal douching and subsequent cytological investigation. At proestrus the animals were brought together with male, fertile rats. The successful insemination was checked on the following morning and this day was denoted as the 1st day of the pregnancy. The pregnant animals then received the test substances as a suspension in a standard vehicle (0.5% carboxymethylcellulose, 0.4% TWEEN 80, 0.9% benzyl alcohol and 0.9% NaCl in water) orally or intramuscularly on the 10th day. The animals were killed on the 15th day. The blood was collected and the uteri were investigated for living foetuses, resorptions and vacant implantation positions. The serum hormone concentrations were determined radio-immunologically.

[2] = biological target: T1, Δ^5 -isomerase/3β-hydroxysteroid dehydrogenase (Rattus norvegicus, UniProt P22071); assay: Inhibition of the formation of progesterone in vitro (14C-pregnenolone, rat ovary microsomes); format: biochemical; conditions: 0.5 μg protein, 250 pmol 14C-pregnenolone, 0.4 mg NAD+, 30 minutes, 37° C., pH 7.4, read-out: IC50 (concentration of the test substance at which the enzyme activity amounts to 50% of the maximum value)
T1 construct: from tissue; host or cells: rat ovary microsomes
T1 sequence (P22071 1-373): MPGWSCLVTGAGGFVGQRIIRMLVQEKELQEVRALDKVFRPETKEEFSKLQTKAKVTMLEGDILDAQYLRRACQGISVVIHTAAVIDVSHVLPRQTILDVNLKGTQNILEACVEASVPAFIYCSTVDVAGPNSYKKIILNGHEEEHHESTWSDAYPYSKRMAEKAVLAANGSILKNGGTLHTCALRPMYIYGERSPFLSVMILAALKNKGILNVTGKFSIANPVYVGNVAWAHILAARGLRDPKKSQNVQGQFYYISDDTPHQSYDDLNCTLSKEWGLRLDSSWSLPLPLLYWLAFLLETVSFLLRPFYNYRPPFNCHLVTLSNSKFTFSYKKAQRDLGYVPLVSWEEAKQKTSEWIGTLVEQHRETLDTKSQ
Description: The activity of the D-homosteroids of formula I as inhibitors of Δ^5 -isomerase/3β-hydroxysteroid dehydrogenase was determined in the following experimental procedures:
Rat overies were homogenized in 0.05 M Na2 HPO4 buffer (pH 7.2) which contained 0.25 M sucrose and 0.05 M dithiothreitol. The microsomes obtained after centrifugation were suspended in 0.05 M Na2 HPO4 buffer (pH 7.4) which contained 0.001 M EDTA. This microsome preparation was assayed firstly for enzymatic activity by measuring the increase of the optical density at 340 nm by the reduction of NAD^+. Thereafter, aliquot portions (0.5 μg of protein) were incubated in 1.8 ml of buffer for 30 minutes at 37° C. with 250 pmol of ^14 C-pregnelonone, 0.4 mg of NAD^+ and different concentrations of the test substance dissolved in the minimum amounts of dimethyl sulphoxide. The reaction was interrupted by the addition of methylene chloride. After extraction and evaporation of the solvent, the radioactive metabolites were separated on silica gel-aluminium plates with benzene/acetone (85:15). The radioactivity was measured by means of a scintillation counter.

SMILES	Serum progesterone 3 h later ([1]; 7.5 mg/kg) [ng/mL]	Living foetuses, n (number of animals) ([1]; 7.5 mg/kg)	Resorption, n (number of animals) ([1]; 7.5 mg/kg)	Resorption, x (mean of the observations) ([1]; 7.5 mg/kg)	Vacant implantation positions, n (number of animals) ([1]; 7.5 mg/kg)	Vacant implantation positions, x (mean of the observations) ([1]; 7.5 mg/kg)	Serum progesterone 3 h later ([1]; 15 mg/kg) [ng/mL]	Living foetuses, n (number of animals) ([1]; 15 mg/kg)	Resorption, n (number of animals) ([1]; 15 mg/kg)	Vacant implantation positions, n (number of animals) ([1]; 15 mg/kg)	Vacant implantation positions, x (mean of the observations) ([1]; 15 mg/kg)	IC50 [2] [nM]	further results
CC1(C)C(=O)[C@H](C#N)C[C@@]2(C)C1=CC[C@@H]1[C@@H]2CC[C@@]2(C)[C@H]1CCC[C@]2(C)O [Example 14, 17aβ-hydroxy-4,4,17a-trimethyl-3-oxo-D-homo-androst-5-ene-2a-carbonitrile]	20	1	3	12	4	12	20	1	3	4	13		Living foetuses, x (mean of the observations) ([1]; 7.5 mg/kg): 3; Living foetuses, x (mean of the observations) ([1]; 15 mg/kg): 12; Resorption, x (mean of the observations) ([1]; 15 mg/kg): 14
CC1(C)C2=CC[C@@H]3[C@H](CC[C@@]4(C)[C@H]3CCC[C@]4(C)O)[C@@]2(C)Cc2cnoc21 [Example 3, 4,4,17a-trimethyl-D-homo-androsta-2,5-dieno[2,3-d]-isoxazol-17aβ-ol]	25	4	5	6	2	3	29	4	6	3	13		Living foetuses, x (mean of the observations) ([1]; 7.5 mg/kg): 9; Living foetuses, x (mean of the observations) ([1]; 15 mg/kg): 9; Resorption, x (mean of the observations) ([1]; 15 mg/kg): 3
CC1(C)C(=O)[C@H](C#N)C[C@@]2(C)C1=CC[C@@H]1[C@@H]2CC[C@@]2(C)[C@H]1CC=C[C@]2(C)O [Example 17, 17aβ-hydroxy-4,4,17a-trimethyl-3-oxo-D-homo-androsta-5,16-diene-2α-carbonitrile]	29	0	2	15	4	11						6.5	Serum progesterone 3 h later ([1]; 3.75 mg/kg): 32 ng/mL; Living foetuses, n (number of animals) ([1]; 3.75 mg/kg): 2; Living foetuses, x (mean of the observations) ([1]; 3.75 mg/kg): 5; Resorption, n (number of animals) ([1]; 3.75 mg/kg): 5; Resorption, x (mean of the observations) ([1]; 3.75 mg/kg): 11; Vacant implantation positions, n (number of animals) ([1]; 3.75 mg/kg): 1; Vacant implantation positions, x (mean of the observations) ([1]; 3.75 mg/kg): 13
CC1(C)C2=CC[C@@H]3[C@H](CC[C@@]4(C)[C@H]3CC=C[C@]4(C)O)[C@@]2(C)Cc2cnoc21 [Example 2, 4,4,17a-trimethyl-D-homo-androsta-2,5,16-trieno[2,3-d]isoxazol-17aβ-ol]	39	0	0		6	13	35	0	0	6	12		Serum progesterone 3 h later ([1]; 3.75 mg/kg): 87 ng/mL; Living foetuses, n (number of animals) ([1]; 3.75 mg/kg): 3; Living foetuses, x (mean of the observations) ([1]; 3.75 mg/kg): 12; Resorption, n (number of animals) ([1]; 3.75 mg/kg): 2; Resorption, x (mean of the observations) ([1]; 3.75 mg/kg): 9; Vacant implantation positions, n (number of animals) ([1]; 3.75 mg/kg): 2; Vacant implantation positions, x (mean of the observations) ([1]; 3.75 mg/kg): 13
CC1(C)C(=O)C(=CNO)C[C@@]2(C)C1=CC[C@@H]1[C@@H]2CC[C@@]2(C)[C@H]1CC=C[C@]2(C)O [Example 21, 17aβ-hydroxy-2-[(hydroxyamino)methylene]-4,4,17a-trimethyl-D-homo-androsta-5,16-dien-3-one]	24	3	6	10	2	10	17	1	0	6	13		Living foetuses, x (mean of the observations) ([1]; 7.5 mg/kg): 6; Living foetuses, x (mean of the observations) ([1]; 15 mg/kg): 15
CCCCC1(O)C=CCC2C3CC=C4C(C)(C)c5[nH]ncc5CC4(C)C3CCC21C [Example 7, 17a-butyl-4,4-dimethyl-2'H-D-homo-androsta-2,5,16-trieno[3,2-c]pyrazol-17aβ-ol]												6	
CC(=O)OC1=C(C#N)C[C@]2(C)[C@H]3CC[C@]4(C)[C@@H](OC(C)=O)C=CC[C@H]4[C@@H]3CC[C@]23O[C@H]13 [Example 22, 3,17aβ-diacetoxy-4α,5α-epoxy-D-homo-5α-androsta-2,16-diene-2-carbonitrile]												0.9	
CC1(C)C2=CC[C@@H]3[C@H](CC[C@@]4(C)[C@H]3CC=C[C@]4(C)O)[C@@]2(C)Cc2cn[nH]c21 [Example 6, 4,4,17a-trimethyl-2'H-D-homo-androsta-2,5,16-trieno[3,2-c]-pyrazol-17aβ-ol]												0.4	
CC1(C)C2=CC[C@H]3[C@@H]4CC=C[C@H](O)[C@@]4(C)CC[C@@H]3[C@@]2(C)Cc2cn[nH]c21 [Example 5, 4,4-dimethyl-2'H-D-homo-androsta-2,5,16-trieno[3,2-c]pyrazol-17aβ-ol]												0.8	
CC(=O)O[C@H]1C=CC[C@H]2[C@@H]3CC=C4C(C)(C)c5nn(C(C)=O)cc5C[C@]4(C)[C@H]3CC[C@]12C [Example 12, 1'-acetyl-4,4-dimethyl-1'H-D-homo-androsta-5,16-dieno[3,2-c]pyrazol-17aβ-yl acetate]												6	
C[C@]1(O)C=CC[C@H]2[C@@H]3CC[C@@]45O[C@]4(C)C(=O)[C@H](C#N)C[C@]5(C)[C@H]3CC[C@@]21C [Example 25, 4α, 5-epoxy-17aβ-hydroxy-4,17a-dimethyl-3-oxo-D-homo-5α-androst-16-ene-2α-carbonitrile]												7	
CC1(C)C(=O)[C@H](C#N)C[C@@]2(C)C1=CC[C@@H]1[C@@H]2CC[C@@]2(C)[C@H]1CC=C[C@@]21CCC(=O)O1 [Example 19, 2α-cyano-4,4-dimethyl-3-oxo-D-homo-17aα-pregna-5,16-diene-21,17a-carbolactone]							9	0	0	8	13		
